Source: patent US12473278B2 (Industry—University Cooperation Foundation Hangyang …, priority 2019, dated 2025)
Read-outs that look alike come from different tables or passages of the source.

Assays:
RAFI = RAFI (Homo sapiens (Human), UniProt P04049); experiment: Kinase panel screening; conditions: read-out: % inhibition rate
Excerpt: (§1) Measurement of Inhibitory Activity Against Various Protein Kinases

c-Kit = c-Kit (Homo sapiens (Human), UniProt P10721); experiment: Kinase panel screening; conditions: read-out: % inhibition rate
Excerpt: as §1

BRAF (V599E) = BRAF (V599E) (Homo sapiens (Human), UniProt P15056, V600E); experiment: Kinase panel screening; conditions: read-out: % inhibition rate
Excerpt: as §1

FLT3 [1] = biological target: T1, FLT3 (Homo sapiens (Human), UniProt P36888); experiment: Measurement of FLT3 enzyme activity; assay type: biochemical
T1 sequence (P36888 27-993): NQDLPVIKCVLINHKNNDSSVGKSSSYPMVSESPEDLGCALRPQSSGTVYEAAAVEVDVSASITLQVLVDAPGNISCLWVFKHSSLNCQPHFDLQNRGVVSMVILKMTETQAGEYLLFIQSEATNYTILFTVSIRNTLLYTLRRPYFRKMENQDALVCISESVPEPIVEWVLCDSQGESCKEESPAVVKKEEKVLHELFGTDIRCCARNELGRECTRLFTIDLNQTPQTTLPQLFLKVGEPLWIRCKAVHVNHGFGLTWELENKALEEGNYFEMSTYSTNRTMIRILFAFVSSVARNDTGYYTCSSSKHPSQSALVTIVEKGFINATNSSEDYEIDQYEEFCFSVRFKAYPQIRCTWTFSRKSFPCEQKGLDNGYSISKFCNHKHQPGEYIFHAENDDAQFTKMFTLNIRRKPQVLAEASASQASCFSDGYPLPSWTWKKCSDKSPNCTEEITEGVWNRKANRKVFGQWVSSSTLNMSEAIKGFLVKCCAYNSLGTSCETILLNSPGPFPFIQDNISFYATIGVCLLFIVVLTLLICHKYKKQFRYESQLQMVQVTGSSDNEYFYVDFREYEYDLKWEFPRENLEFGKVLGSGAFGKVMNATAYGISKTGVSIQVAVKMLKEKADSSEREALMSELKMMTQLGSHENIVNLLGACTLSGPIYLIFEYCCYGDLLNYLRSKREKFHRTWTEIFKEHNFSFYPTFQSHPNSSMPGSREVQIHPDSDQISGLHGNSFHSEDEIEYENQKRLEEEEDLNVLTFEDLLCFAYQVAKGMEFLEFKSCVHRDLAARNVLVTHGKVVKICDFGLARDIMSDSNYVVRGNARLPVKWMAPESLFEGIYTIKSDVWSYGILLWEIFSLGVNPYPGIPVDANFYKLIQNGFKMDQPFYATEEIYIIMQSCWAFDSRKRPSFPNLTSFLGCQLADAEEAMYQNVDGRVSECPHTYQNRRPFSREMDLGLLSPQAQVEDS
Excerpt: Measurement of FLT3 Enzyme Activity
A change in FLT3 enzyme activity by treatment with the benzimidazole derivatives of the following Table 1 according to the present invention was confirmed by IC50.

FGFR3 = FGFR3 (Homo sapiens (Human), UniProt P22607); experiment: Kinase panel screening; conditions: read-out: % inhibition rate
Excerpt: as §1

FLT3 [2] = biological target: T1, FLT3; experiment: Kinase panel screening; conditions: read-out: % inhibition rate
Excerpt: as §1

EGFR = EGFR (Homo sapiens (Human), UniProt P00533); experiment: Kinase panel screening; conditions: read-out: % inhibition rate
Excerpt: as §1

AKT1 = AKT1 (Homo sapiens (Human), UniProt P31749); experiment: Kinase panel screening; conditions: read-out: % inhibition rate
Excerpt: as §1

CDK2/cyclin E = CDK2/cyclin E (Homo sapiens (Human), UniProt P24941); experiment: Kinase panel screening; assay type: biochemical; conditions: read-out: % inhibition rate
BTK = BTK (Homo sapiens (Human), UniProt Q06187); experiment: Kinase panel screening; conditions: read-out: % inhibition rate
Excerpt: as §1

c-Src = c-Src (Homo sapiens (Human), UniProt P12931); experiment: Kinase panel screening; conditions: read-out: % inhibition rate
Excerpt: as §1

ABL1 = ABL1 (Homo sapiens (Human), UniProt P00519); experiment: Kinase panel screening; assay type: biochemical; conditions: read-out: % inhibition rate
ROS/ROS1 = ROS/ROS1 (Homo sapiens (Human), UniProt P08922); experiment: Kinase panel screening; conditions: read-out: % inhibition rate
Excerpt: as §1

LYN = LYN (Homo sapiens (Human), UniProt P07948); experiment: Kinase panel screening; conditions: read-out: % inhibition rate
Excerpt: as §1

LCK = LCK (Homo sapiens (Human), UniProt P06239); experiment: Kinase panel screening; assay type: biochemical; conditions: read-out: % inhibition rate
Aurora A = Aurora A (Homo sapiens (Human), UniProt O14965); experiment: Kinase panel screening; conditions: read-out: % inhibition rate
Excerpt: as §1

P38a/MAPK14 = P38a/MAPK14 (Homo sapiens (Human), UniProt Q16539); experiment: Kinase panel screening; conditions: read-out: % inhibition rate
P38a/MAPK14, sequence (Q16539 whole entry): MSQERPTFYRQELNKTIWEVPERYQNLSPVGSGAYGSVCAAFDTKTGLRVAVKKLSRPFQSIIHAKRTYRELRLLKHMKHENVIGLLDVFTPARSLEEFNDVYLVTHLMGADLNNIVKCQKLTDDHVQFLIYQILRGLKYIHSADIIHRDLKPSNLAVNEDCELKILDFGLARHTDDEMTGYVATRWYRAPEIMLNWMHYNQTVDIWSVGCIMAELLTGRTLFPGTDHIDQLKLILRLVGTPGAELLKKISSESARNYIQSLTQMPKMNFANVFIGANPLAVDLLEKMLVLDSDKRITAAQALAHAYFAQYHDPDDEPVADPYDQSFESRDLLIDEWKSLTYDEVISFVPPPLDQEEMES
Excerpt: as §1

ERK1 = ERK1 (Homo sapiens (Human), UniProt P27361); experiment: Kinase panel screening; conditions: read-out: % inhibition rate
Excerpt: as §1

PKA = PKA (Homo sapiens (Human), UniProt P17612); experiment: Kinase panel screening; conditions: read-out: % inhibition rate
Excerpt: as §1

FMS = FMS (Homo sapiens (Human), UniProt P07333); experiment: Kinase panel screening; assay type: biochemical; conditions: read-out: % inhibition rate
c-MET = c-MET (Homo sapiens (Human), UniProt P08581); experiment: Kinase panel screening; conditions: read-out: % inhibition rate
Excerpt: as §1

SYK = SYK (Homo sapiens (Human), UniProt P43405); experiment: Kinase panel screening; assay type: biochemical; conditions: single dose of 10 μM, read-out: % inhibition rate
IGFIR = IGFIR (Homo sapiens (Human), UniProt P08069); experiment: Kinase panel screening; conditions: read-out: % inhibition rate
IGFIR, sequence (P08069 31-1367): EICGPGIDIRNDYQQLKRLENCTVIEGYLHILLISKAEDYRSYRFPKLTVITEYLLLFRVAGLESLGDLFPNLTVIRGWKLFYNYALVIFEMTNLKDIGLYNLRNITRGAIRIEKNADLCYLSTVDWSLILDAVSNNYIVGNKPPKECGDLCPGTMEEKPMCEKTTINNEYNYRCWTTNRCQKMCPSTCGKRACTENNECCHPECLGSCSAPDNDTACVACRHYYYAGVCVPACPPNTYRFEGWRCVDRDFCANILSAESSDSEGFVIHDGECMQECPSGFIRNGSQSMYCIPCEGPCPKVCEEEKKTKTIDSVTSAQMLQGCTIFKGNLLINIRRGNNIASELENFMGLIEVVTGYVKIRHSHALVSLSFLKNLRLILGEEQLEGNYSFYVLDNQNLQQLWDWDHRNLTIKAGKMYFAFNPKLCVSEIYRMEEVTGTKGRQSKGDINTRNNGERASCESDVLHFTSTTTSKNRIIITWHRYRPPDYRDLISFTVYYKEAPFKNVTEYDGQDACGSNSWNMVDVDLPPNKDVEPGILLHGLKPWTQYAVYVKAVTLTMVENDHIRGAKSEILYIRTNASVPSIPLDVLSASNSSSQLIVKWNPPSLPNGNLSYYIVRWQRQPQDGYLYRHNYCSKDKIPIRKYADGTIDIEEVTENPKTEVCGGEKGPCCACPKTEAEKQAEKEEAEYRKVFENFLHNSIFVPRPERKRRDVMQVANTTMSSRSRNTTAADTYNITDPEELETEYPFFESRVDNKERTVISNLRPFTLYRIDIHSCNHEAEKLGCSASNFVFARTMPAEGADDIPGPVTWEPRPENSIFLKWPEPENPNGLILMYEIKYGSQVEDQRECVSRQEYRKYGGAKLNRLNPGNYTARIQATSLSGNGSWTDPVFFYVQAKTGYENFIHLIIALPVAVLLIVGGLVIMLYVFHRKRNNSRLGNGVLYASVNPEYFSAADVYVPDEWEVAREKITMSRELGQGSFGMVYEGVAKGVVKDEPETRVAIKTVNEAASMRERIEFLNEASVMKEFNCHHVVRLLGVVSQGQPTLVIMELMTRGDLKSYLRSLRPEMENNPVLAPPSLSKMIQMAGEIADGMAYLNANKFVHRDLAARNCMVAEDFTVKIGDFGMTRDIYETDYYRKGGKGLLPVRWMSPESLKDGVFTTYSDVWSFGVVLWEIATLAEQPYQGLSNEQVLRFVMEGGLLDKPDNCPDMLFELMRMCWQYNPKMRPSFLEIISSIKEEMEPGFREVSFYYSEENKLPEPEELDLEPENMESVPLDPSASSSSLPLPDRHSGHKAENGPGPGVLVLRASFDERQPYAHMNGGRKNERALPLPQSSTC
Excerpt: as §1

PLK1 = PLK1 (Homo sapiens (Human), UniProt P53350); experiment: Kinase panel screening; assay type: biochemical; conditions: read-out: % inhibition rate
JNK3 = JNK3 (Homo sapiens (Human), UniProt P53779); experiment: Kinase panel screening; conditions: read-out: % inhibition rate
Excerpt: as §1

MEK1 = MEK1 (Homo sapiens (Human), UniProt Q02750); experiment: Kinase panel screening; conditions: read-out: % inhibition rate
Excerpt: as §1

CDK1/cyclinB = CDK1/cyclinB (Homo sapiens (Human), UniProt P06493); experiment: Kinase panel screening; conditions: read-out: % inhibition rate
Excerpt: as §1

JAK3 = JAK3 (Homo sapiens (Human), UniProt P52333); experiment: Kinase panel screening; conditions: read-out: % inhibition rate
Excerpt: as §1

GSK3b = GSK3b (Homo sapiens (Human), UniProt P49841); experiment: Kinase panel screening; assay type: biochemical; conditions: read-out: % inhibition rate
KDR/VEGFR2 = KDR/VEGFR2 (Homo sapiens (Human), UniProt P35968); experiment: Kinase panel screening; assay type: biochemical; conditions: read-out: % inhibition rate
FLT1/VEGFR1 = FLT1/VEGFR1 (Homo sapiens (Human), UniProt P17948); experiment: Kinase panel screening; conditions: read-out: % inhibition rate
Excerpt: as §1

BRAF = BRAF (Homo sapiens (Human), UniProt P15056); experiment: Kinase panel screening; conditions: read-out: % inhibition rate
Excerpt: as §1

ALK = ALK (Homo sapiens (Human), UniProt Q9UM73); experiment: Kinase panel screening; conditions: read-out: % inhibition rate
Excerpt: as §1

MTOR/FRAP1 = MTOR/FRAP1 (Homo sapiens (Human), UniProt P42345); experiment: Kinase panel screening; assay type: biochemical; conditions: read-out: % inhibition rate
RON/MSTIR = RON/MSTIR (Homo sapiens (Human), UniProt Q04912); experiment: Kinase panel screening; conditions: read-out: % inhibition rate
RON/MSTIR, sequence (Q04912 25-1400): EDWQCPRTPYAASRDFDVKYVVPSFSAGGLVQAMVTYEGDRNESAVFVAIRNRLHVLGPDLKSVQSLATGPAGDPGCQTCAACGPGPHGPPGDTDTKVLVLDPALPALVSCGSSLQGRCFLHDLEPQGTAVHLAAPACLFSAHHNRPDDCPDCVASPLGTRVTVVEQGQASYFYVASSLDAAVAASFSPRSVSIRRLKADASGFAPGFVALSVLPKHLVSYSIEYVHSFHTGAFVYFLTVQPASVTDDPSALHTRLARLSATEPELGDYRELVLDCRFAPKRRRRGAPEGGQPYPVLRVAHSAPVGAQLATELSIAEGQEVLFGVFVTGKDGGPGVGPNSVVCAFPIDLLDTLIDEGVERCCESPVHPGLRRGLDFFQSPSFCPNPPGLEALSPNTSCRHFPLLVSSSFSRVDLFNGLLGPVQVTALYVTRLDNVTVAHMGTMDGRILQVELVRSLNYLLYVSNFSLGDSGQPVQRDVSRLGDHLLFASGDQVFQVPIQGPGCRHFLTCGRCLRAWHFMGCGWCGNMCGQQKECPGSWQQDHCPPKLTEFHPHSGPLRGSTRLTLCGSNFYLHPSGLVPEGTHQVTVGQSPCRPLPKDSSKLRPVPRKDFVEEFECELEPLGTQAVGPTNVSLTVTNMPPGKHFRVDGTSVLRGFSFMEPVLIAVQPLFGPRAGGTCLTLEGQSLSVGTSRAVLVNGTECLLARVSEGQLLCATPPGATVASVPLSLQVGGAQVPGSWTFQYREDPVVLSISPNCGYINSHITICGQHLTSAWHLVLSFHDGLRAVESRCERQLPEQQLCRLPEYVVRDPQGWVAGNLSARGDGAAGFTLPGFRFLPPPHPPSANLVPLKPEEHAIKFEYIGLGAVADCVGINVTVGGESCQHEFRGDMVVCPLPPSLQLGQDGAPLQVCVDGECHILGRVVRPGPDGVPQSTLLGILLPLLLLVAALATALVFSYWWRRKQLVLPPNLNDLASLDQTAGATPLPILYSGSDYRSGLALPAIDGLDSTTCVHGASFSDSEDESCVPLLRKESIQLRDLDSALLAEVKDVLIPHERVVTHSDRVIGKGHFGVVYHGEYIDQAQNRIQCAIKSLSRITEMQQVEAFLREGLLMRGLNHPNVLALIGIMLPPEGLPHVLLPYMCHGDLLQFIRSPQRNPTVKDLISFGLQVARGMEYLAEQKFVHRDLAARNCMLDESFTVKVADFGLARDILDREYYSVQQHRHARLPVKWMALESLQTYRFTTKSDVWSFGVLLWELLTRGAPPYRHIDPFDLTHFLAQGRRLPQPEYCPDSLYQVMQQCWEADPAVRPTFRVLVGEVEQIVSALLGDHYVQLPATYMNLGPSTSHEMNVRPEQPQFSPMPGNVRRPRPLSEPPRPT
Excerpt: as §1

c-Kit, sequence (P10721 26-976): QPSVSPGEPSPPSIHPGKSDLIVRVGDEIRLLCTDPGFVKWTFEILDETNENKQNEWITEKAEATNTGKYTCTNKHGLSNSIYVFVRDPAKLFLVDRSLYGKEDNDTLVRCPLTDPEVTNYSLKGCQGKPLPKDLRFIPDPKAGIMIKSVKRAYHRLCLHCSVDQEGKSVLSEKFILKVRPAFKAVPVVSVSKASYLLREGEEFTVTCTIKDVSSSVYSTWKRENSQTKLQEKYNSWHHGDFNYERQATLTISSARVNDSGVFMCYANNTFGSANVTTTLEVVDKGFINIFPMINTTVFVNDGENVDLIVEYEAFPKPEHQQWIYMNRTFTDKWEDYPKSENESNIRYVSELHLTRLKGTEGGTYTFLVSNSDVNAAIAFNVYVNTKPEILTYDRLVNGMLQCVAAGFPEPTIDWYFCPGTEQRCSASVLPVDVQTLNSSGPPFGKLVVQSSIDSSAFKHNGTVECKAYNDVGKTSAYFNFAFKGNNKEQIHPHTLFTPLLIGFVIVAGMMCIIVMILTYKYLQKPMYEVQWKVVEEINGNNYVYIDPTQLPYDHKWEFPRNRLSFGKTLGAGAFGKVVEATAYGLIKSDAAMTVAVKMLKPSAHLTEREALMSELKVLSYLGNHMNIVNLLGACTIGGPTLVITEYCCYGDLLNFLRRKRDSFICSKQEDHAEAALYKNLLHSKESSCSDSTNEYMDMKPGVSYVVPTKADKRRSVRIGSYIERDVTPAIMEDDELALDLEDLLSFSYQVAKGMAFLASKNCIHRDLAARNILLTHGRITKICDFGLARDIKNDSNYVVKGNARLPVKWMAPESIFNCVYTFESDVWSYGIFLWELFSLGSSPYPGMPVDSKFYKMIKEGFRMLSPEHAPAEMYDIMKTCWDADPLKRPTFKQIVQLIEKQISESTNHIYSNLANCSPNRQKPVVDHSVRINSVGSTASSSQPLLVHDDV

SMILES: Cc1oncc1C(=O)Nc1ccc2[nH]c(-c3cc(N4CCOCC4)cc(C(F)(F)F)c3)nc2c1 [Compound 5b, 5-methyl-N-(2-(3-morpholino-5-(trifluoromethyl)phenyl)-1H-benz[d]imidazol-5-yl)isoxazole-4-carboxamide]
- inhibition at 10 µM (RAFI): 15.7%
- inhibition at 10 µM (c-Kit): 0%
- inhibition at 10 µM (BRAF (V599E)): 25.2%
- IC50 (FLT3 [1]; FLT3 enzyme activity, read-out: FLT3 (IC50)): 3 to 10 µM
- IC50 (FLT3 [1]; FLT3 kinase activity, read-out: IC50 against FLT3): 7.94 µM
- inhibition at 10 µM (FGFR3): 0%
- inhibition at 10 µM (FLT3 [2]): 73%
- inhibition at 10 µM (EGFR): 0%
- inhibition at 10 µM (AKT1): 10.9%
- inhibition at 10 µM (CDK2/cyclin E): 0%
- inhibition at 10 µM (BTK): 19.3%
- inhibition at 10 µM (c-Src): 0%
- inhibition at 10 µM (ABL1): 0%
- inhibition at 10 µM (ROS/ROS1): 7.4%
- inhibition at 10 µM (LYN): 0%
- inhibition at 10 µM (LCK): 0%
- inhibition at 10 µM (Aurora A): 6.4%
- inhibition at 10 µM (P38a/MAPK14): 0%
- inhibition at 10 µM (ERK1): 0%
- inhibition at 10 µM (PKA): 2.38%
- inhibition at 10 µM (FMS): 0%
- inhibition at 10 µM (c-MET): 0%
- inhibition at 10 µM (SYK): 2.18%
- inhibition at 10 µM (IGFIR): 0%
- inhibition at 10 µM (PLK1): 2.86%
- inhibition at 10 µM (JNK3): 0%
- inhibition at 10 µM (MEK1): 0%
- inhibition at 10 µM (CDK1/cyclinB): 2.76%
- inhibition at 10 µM (JAK3): 0.94%
- inhibition at 10 µM (GSK3b): 2.8%
- inhibition at 10 µM (KDR/VEGFR2): 0%
- inhibition at 10 µM (FLT1/VEGFR1): 0%
- inhibition at 10 µM (BRAF): 0%
- inhibition at 10 µM (ALK): 0%
- inhibition at 10 µM (MTOR/FRAP1): 0%
- inhibition at 10 µM (RON/MSTIR): 0%
